Results published in paper PMC6155728, “Design, Synthesis and Evaluation of Indene Derivatives as Retinoic Acid Receptor α Agonists” (Molecules : A Journal of Synthetic Chemistry and Natural …, 2016).
Values joined by “and” are separate entries in the source; they are usually repeats but may differ in a detail not shown here. Identical values can stand only once. Like-named read-outs stand apart in the source and are kept apart here.

What was measured:
HL60 cells [1] = assay: Inhibition of cell proliferation assay (SRB), HL60; type: cell-based; conditions: Homo sapiens, read-out: IC50 cell proliferation HL60
Protocol: (§1) Human promyelocytic leukemia cell lines HL60 and NB4 were employed to determine the effects of the derivatives on cell proliferation. […] Alkoxy-substitution at the 2-position (i.e., compounds 36f, 36g) harmed the cell proliferation inhibitory activity of the compounds in both cell lines while the isopropyl group at the same position (compound 36h) is favourable. The extension of the π system by an alkenyl bond or a ketone group, as in 36j–l, didn’t affect the compounds’ inhibitory activity in HL60 cells but nulified their activity in NB4 cells. The indene ring tolerates the dual-introduction of a small alkoxyl and an alkyl group at 1- and 2-position, respectively, to retain the antiproliferative activity in HL60 cells.
(§2) Cells were seeded in 96-well plates (Corning Inc.) with a density of 2500 cells (NB4 or HL60) per well for overnight. Then, cells were exposed to each of the test compounds 36a–36p in gradient concentration of 10^−9, 10^−8, 10^−7, 10^−6, 10^−5 mol/L. Control cultures were treated with the same volume of DMSO. After 72 hours of incubation, the cell density in each well were fixed by trichloroacetic acid and then measured using the SRB (sulforhodamine B) method. After rinsing, the SRB was solubilized in TrisHCl, and the optical density of each culture was determined with a Bio-Tek Elx 800 absorbance microplate reader (BioTek, Shoreline, WA, USA). The OD of the treated cultures was divided by that of the control cultures treated with solvent alone.

NB4 cells [2] = assay: Inhibition of cell proliferation assay (SRB), NB4; type: cell-based, human; conditions: read-out: IC50 cell proliferation NB4
Protocol: as §1, §2

HL60 cells [3] = assay: Cell differentiation assay (CD11b, FACS), HL60; type: cell-based, human
Protocol: (§3) The effects of 36a–g on the differentiation of HL60 and NB4 cells were then assessed.
(§4) Cells (1 × 10^6/mL) were treated with compounds at different concentrations based on IC50 in Table 2 […]. After the treatment, cells were washed twice with PBS and then fixed with 75% alcohol overnight at −20 °C. The fixed cells were washed with PBS and blocked with 95 μL 3% BSA in PBS for 45 min at room temperature. The cells were incubated with 5 μL CD11b-PE at 4 °C for 45 min with protection from light. The antigens were then determined by a FACSCalibur flow cytometer (BD Biosciences Pharmingen, San Diego, CA, USA). The percentages of positive cells were quantitated using CellQuest Pro software. Cells stained with mouse IgG-PE served as negative controls. Both CD11b-PE and mouse IgG-PE antibodies were purchased from BD Biosciences. At least 10,000 cells were analyzed for each data point.

NB4 cells [4] = assay: Cell differentiation assay (CD11b, FACS), NB4; type: cell-based, human
Protocol: as §3, §4

RARα (RAR alpha LBD-GST) = target: T1, RARα (RAR alpha LBD-GST) (Homo sapiens, UniProt P10276); assay: Receptor binding assay (LanthaScreen TR-FRET RAR alpha Coactivator Assay); conditions: 1 h incubation, AM80 positive control, read-out: RARα binding affinity EC50
T1 construct: A mixture of 5 nM RAR alpha LBD-GST, 5 nM TbAnti-GST antibody, 50 nM Fluorescein-D22 was added to the wells; purchased Invitrogen
T1 sequence (P10276 183-417 limits assumed): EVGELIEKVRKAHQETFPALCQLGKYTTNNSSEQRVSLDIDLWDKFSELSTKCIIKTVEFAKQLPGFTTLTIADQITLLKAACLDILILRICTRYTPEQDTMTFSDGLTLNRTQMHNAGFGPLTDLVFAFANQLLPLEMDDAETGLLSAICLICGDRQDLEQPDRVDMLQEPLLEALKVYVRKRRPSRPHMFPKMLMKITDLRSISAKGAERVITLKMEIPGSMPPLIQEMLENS
Protocol: The obtained target compounds were tested for their binding affinities to RARα using a time resolved fluorescence resonance energy transfer (TR-FRET) assay with AM80 as the positive control.
All synthesized compounds were tested for their binding affinity by using time resolved fluorescence resonance energy transfer (TR-FRET) assay, which used a LanthaScreen® TR-FRET RAR alpha Coactivator Assay Kit (Invitrogen, Carlsbad, CA, USA). Briefly, all experiments were performed in black 384-well low-volume plates (Corning Inc., Corning, NY, USA) in dark at room temperature. The final assay volume was 20 μL. All dilutions were made in assay buffer (TR-FRET Coregulator Buffer D). The final DMSO concentration was 1%. A mixture of 5 nM RAR alpha LBD-GST, 5 nM TbAnti-GST antibody, 50 nM Fluorescein-D22 was added to the wells. The only variable is the agonist concentration (6.1 × 10^−11~1.0 × 10^−6 M final concentrations of each retinoid). […] Data were analyzed by using GraphPad Prism software (GraphPad Software, Inc., La Jolla, CA, USA) and FRET signal was determined for all treatments by dividing 520 nm/495 nm signals. Graphs plotted as fold change of FRET signal for compounds treatment over DMSO only treatment.

[5] = HL-60, HL60 cells, 72 hours, SRB
[6] = Homo sapiens, NB-4, 72 h, NB4 cells, 72 hours, SRB

Row | EC50 (RARα (RAR alpha LBD-GST)) [nM] | IC50 (HL60 cells [1]; [5]) [nM] | melting point [°C] | SMILES | IC50 (HL60 cells [1]; HL-60, 72 h) [nM] | IC50 (NB4 cells [2]; Homo sapiens, NB-4, 72 h) [nM] | CD11b (%) HL60 (HL60 cells [3]; 10 μM) | CD11b (%) NB4 (NB4 cells [4]; 10 μM) | IC50 (NB4 cells [2]; [6]) [nM] | CD11b (%) HL60 (HL60 cells [3]; 50 μM) | CD11b (%) NB4 (NB4 cells [4]; 5 μM) | IC50 (NB4 cells [2]; NB4 cells, 72 hours, SRB) [nM] | CD11b (%) NB4 (NB4 cells [4]; 20 μM)
1 | 12.1 | > 50000 | > 250 | O=C(O)c1ccc(C(=O)Nc2ccc3c(c2)CCC3)cc1 [Compound 36a, 4-((2,3-Dihydro-1H-inden-5-yl)carbamoyl)benzoic acid] |  |  |  |  | 6970 | 1.13 (50 μM) % | 0.97 (5 μM) % |  | 
2 |  |  | > 250 | CCOC1CCc2ccc(NC(=O)c3ccc(C(=O)O)cc3)cc21 (stereo not drawn) [Compound 36c] |  |  |  |  |  |  |  |  | 
3 | > 1000 | > 50000 | > 250 | COC1Cc2ccc(NC(=O)c3ccc(C(=O)O)cc3)cc2C1 (stereo not drawn) [Compound 36f, 4-((2-Methoxy-2,3-dihydro-1H-inden-5-yl)carbamoyl)benzoic acid] |  |  |  |  | > 50000 |  |  |  | 
4 | > 1000 | > 50000 | > 250 | CCOC1Cc2ccc(NC(=O)c3ccc(C(=O)O)cc3)cc2C1 (stereo not drawn) [Compound 36g, 4-((2-Ethoxy-2,3-dihydro-1H-inden-5-yl)carbamoyl)benzoic acid] |  |  |  |  | 22000 | 5.82 (50 μM) % |  |  | 0.49 (20 μM) %
5 | 43 | 910 | > 250 | CC(C)C1Cc2ccc(NC(=O)c3ccc(C(=O)O)cc3)cc2C1 (stereo not drawn) [Compound 36h, 4-((2-Isopropyl-2,3-dihydro-1H-inden-5-yl)carbamoyl)benzoic acid] |  |  |  |  | 2610 |  |  |  | 
6 | 146 | 800 | > 250 | CCOC1c2cc(NC(=O)c3ccc(C(=O)O)cc3)ccc2CC1C (stereo not drawn) [Compound 36n, 4-((3-Ethoxy-2-methyl-2,3-dihydro-1H-inden-5-yl)carbamoyl)benzoic acid] |  |  |  |  | 8510 |  |  |  | 
7 | 9.03 | 1130 | > 250 | CCOC1c2cc(NC(=O)c3ccc(C(=O)O)cc3)ccc2CC1C(C)C (stereo not drawn) [Compound 36p, 4-((3-Ethoxy-2-isopropyl-2,3-dihydro-1H-inden-5-yl)carbamoyl)benzoic acid] |  |  |  |  | 7560 |  |  |  | 

Further lines, the compound ahead of its results:

Row | SMILES | EC50 (RARα (RAR alpha LBD-GST)) [nM] | IC50 (HL60 cells [1]; [5]) [nM] | melting point [°C] | IC50 (HL60 cells [1]; HL-60, 72 h) [nM] | IC50 (NB4 cells [2]; Homo sapiens, NB-4, 72 h) [nM] | CD11b (%) HL60 (HL60 cells [3]; 10 μM) | CD11b (%) NB4 (NB4 cells [4]; 10 μM) | IC50 (NB4 cells [2]; [6]) [nM] | CD11b (%) HL60 (HL60 cells [3]; 50 μM) | CD11b (%) NB4 (NB4 cells [4]; 5 μM) | IC50 (NB4 cells [2]; NB4 cells, 72 hours, SRB) [nM] | CD11b (%) NB4 (NB4 cells [4]; 20 μM)
8 | CC1(C)CCC(C)(C)c2cc(NC(=O)c3ccc(C(=O)O)cc3)ccc21 [AM80, reference compound] |  |  |  | 170 | 13300 | 4.59 (10 μM) % | 94.93 (10 μM) % |  |  |  |  | 
9 | COC1CCc2ccc(NC(=O)c3ccc(C(=O)O)cc3)cc21 (stereo not drawn) [Compound 36b, 4-((3-Methoxy-2,3-dihydro-1H-inden-5-yl)carbamoyl)benzoic acid] | 130 | 130 | > 250 |  |  |  |  | 35400 |  |  |  | 
10 | CC(C)OC1CCc2ccc(NC(=O)c3ccc(C(=O)O)cc3)cc21 (stereo not drawn) [Compound 36d, 4-((3-Isopropoxy-2,3-dihydro-1H-inden-5-yl)carbamoyl)benzoic acid] | 24.2 | > 50000 | > 250 |  |  |  |  | 1860 to 4090 | 3.77 (50 μM) % | 68.88% and 68.88 (5 μM) % | 1860 | 
11 | CCCCOC1CCc2ccc(NC(=O)c3ccc(C(=O)O)cc3)cc21 (stereo not drawn) [Compound 36e, 4-((3-Butoxy-2,3-dihydro-1H-inden-5-yl)carbamoyl)benzoic acid] | 14.9 | > 50000 | > 250 |  |  |  |  |  | 2.87 (50 μM) % | 15.42 (5 μM) % |  | 
12 | CC1=Cc2cc(NC(=O)c3ccc(C(=O)O)cc3)ccc2C1 [Compound 36i, 4-((2-Methyl-1H-inden-5-yl)carbamoyl)benzoic acid] | 14.1 | > 50000 | > 250 |  |  |  |  | > 50000 |  |  |  | 
13 | CC(C)C1=Cc2cc(NC(=O)c3ccc(C(=O)O)cc3)ccc2C1 [Compound 36j, 4-((2-Isopropyl-1H-inden-5-yl)carbamoyl)benzoic acid] | 3.53 | 2370 | > 250 |  |  |  |  | > 50000 |  |  |  | 
14 | CC1Cc2ccc(NC(=O)c3ccc(C(=O)O)cc3)cc2C1=O (stereo not drawn) [Compound 36k, 4-((2-Methyl-3-oxo-2,3-dihydro-1H-inden-5-yl)carbamoyl)benzoic acid] |  | 2660 | > 250 |  |  |  |  | > 50000 |  |  |  | 
15 | CC(C)C1Cc2ccc(NC(=O)c3ccc(C(=O)O)cc3)cc2C1=O (stereo not drawn) [Compound 36l, 4-((2-Isopropyl-3-oxo-2,3-dihydro-1H-inden-5-yl)carbamoyl)benzoic acid] | 4.68 | 2110 | > 250 |  |  |  |  | 36900 |  |  |  | 
16 | COC1c2cc(NC(=O)c3ccc(C(=O)O)cc3)ccc2CC1C (stereo not drawn) [Compound 36m, 4-((3-Methoxy-2-methyl-2,3-dihydro-1H-inden-5-yl)carbamoyl)benzoic acid] | 292 | 430 | > 250 |  |  |  |  | > 50000 |  |  |  | 
17 | COC1c2cc(NC(=O)c3ccc(C(=O)O)cc3)ccc2CC1C(C)C (stereo not drawn) [Compound 36o, 4-((2-Isopropyl-3-methoxy-2,3-dihydro-1H-inden-5-yl)carbamoyl)benzoic acid] | 3.93 | 2350 | > 250 |  |  |  |  | > 50000 |  |  |  | 
